Laboratory results as given in patent US11780840B2 (Incyte Corporation, priority 2020, dated 2023).

Experiments:
[1] = molecular target: T1, catalytic domain (JH1, amino acids 826-1132) of human JAK2 (Homo sapiens, UniProt O60674); assay: JAK2 LanthaScreen JH1 Binding Assay; settings: JAK2 JH1 (1.5 nM), 50 nM fluorescent JAK2-JH1 tracer, 2 hours at 25° C.; read-out: JH1 BIND
T1 construct: catalytic domain (JH1, amino acids 826-1132) of human JAK2; FLAG (N); purchased Carna Biosciences 08-445-20N; host or cells: baculovirus expression system
T1 sequence (O60674 826-1132): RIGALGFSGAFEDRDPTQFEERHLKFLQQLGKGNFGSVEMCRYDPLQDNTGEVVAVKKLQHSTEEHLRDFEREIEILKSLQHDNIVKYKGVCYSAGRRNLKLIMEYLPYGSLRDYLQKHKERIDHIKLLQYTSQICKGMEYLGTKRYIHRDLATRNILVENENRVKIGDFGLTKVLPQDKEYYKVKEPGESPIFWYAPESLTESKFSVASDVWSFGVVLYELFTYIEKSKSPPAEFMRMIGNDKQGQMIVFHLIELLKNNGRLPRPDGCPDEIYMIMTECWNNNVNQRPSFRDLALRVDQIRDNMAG
Summary of the method: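 FLAG-tagged, biotinylated JAK2 JH1 (aa 826-1132, baculovirus-expressed; 1.5 nM) incubated 2 h at 25° C with compounds, 50 nM fluorescent tracer and 0.5 nM Streptavidin-Tb in Tris pH 7.5 buffer with MgCl2, Brij-35, BSA, EGTA, glycerol, DTT. Nonspecific binding defined with 2 mM ATP; TR-FRET IC50 from four-parameter fit.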

[2] = molecular target: T2, pseudo-kinase domain (JH2, amino-acids 536-812 with 3 surface mutations W659A, W777A, F794H) of human V617F mutant JAK2 (Homo sapiens, UniProt O60674, F794H/V617F/W659A/W777A); assay: JAK2 LanthaScreen JH2-V617F Binding Assay; settings: JAK2 JH2-V617F (0.26 nM), 50 nM Fluorescent JAK2-JH2 Tracer, 1 hour at 25° C.; read-out: JH2 BIND V617F
T2 construct: pseudo-kinase domain (JH2, amino-acids 536-812 with 3 surface mutations W659A, W777A, F794H); His (C); Avi (biotinylated) (C); purchased BPS Bioscience 79498; host or cells: baculovirus expression system
T2 sequence (O60674 536-812 V617F/W659A/W777A/F794H): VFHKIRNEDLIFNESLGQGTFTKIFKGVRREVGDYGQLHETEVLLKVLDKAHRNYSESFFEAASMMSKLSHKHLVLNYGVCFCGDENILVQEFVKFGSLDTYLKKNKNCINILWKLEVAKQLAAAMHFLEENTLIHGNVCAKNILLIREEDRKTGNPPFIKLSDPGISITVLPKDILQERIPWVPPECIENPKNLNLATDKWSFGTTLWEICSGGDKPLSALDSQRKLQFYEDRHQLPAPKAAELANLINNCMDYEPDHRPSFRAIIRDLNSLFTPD
Summary of the method: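 Biotinylated His-Avi-tagged JH2 protein was baculovirus-expressed and used at 0.26 nM. It was incubated with compound, 50 nM fluorescent JH2 tracer and 0.25 nM streptavidin-Tb for 1 h at 25 °C in pH 7.5 Tris buffer with MgCl2, BSA, DTT. Non-specific binding was defined with 2 mM ATP. IC50 came from four-parameter fits of TR-FRET signal.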

[3] = molecular target: T3, pseudo-kinase domain (JH2, amino-acids 536-812 with 3 surface mutations W659A, W777A, F794H) of human Wild Type JAK2 (Homo sapiens, UniProt O60674, F794H/W659A/W777A); assay: JAK2 LanthaScreen JH2-WT Binding Assay; settings: JAK2 JH2-WT (0.145 nM), 50 nM Fluorescent JAK2-JH2 Tracer, 1 hour at 25° C.; read-out: JH2 BIND WT
T3 construct: pseudo-kinase domain (JH2, amino-acids 536-812 with 3 surface mutations W659A, W777A, F794H); His (C); Avi (biotinylated) (C); purchased BPS Bioscience 79463; host or cells: baculovirus expression system
T3 sequence (O60674 536-812 W659A/W777A/F794H): as the sequence (O60674 536-812 V617F/W659A/W777A/F794H) above, with F82V counted along it
Summary of the method: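 IC50 values derive from four-parameter fits of LanthaScreen signal, measuring displacement of 50 nM fluorescent tracer from 0.145 nM biotinylated, baculovirus-expressed JH2 (536-812) detected by 0.25 nM streptavidin-Tb. Incubation lasts 1 hour at 25° C, pH 7.5.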

| SMILES | IC50 [1] | IC50 [2] | IC50 [3] |
| --- | --- | --- | --- |
| CC(C)n1c(=O)n(C)c2cnc3[nH]c(-c4cnn(CC(C)(C)O)c4)c(-c4ccn5cncc5c4)c3c21 [Example 85, 7-(1-(2-Hydroxy-2-methylpropyl)-1H-pyrazol-4-yl)-8-(imidazo[1,5-a]pyridin-7-yl)-1-isopropyl-3-methyl-3,6-dihydroimidazo[4,5-d]pyrrolo[2,3-b]pyridin-2(1H)-one] | > 1000 nM | 10 to 100 nM | ≤ 10 nM |
| CC(C)n1c(=O)n(C)c2cnc3[nH]c(-c4cnn(CC(C)(C)O)c4)c(-c4ccc5c(c4)CCC5O)c3c21 (stereo not drawn) [Example 86, 8-(1-Hydroxy-2,3-dihydro-1H-inden-5-yl)-7-(1-(2-hydroxy-2-methylpropyl)-1H-pyrazol-4-yl)-1-isopropyl-3-methyl-3,6-dihydroimidazo[4,5-d]pyrrolo[2,3-b]pyridin-2(1H)-one] | > 1000 nM | 10 to 100 nM | ≤ 10 nM |
| CC(C)n1c(=O)n(C)c2cnc3[nH]c(-c4cnn(CC(C)(C)O)c4)c(-c4ccc(COC5CCOCC5)cc4)c3c21 [Example 87, 7-(1-(2-Hydroxy-2-methylpropyl)-1H-pyrazol-4-yl)-1-isopropyl-3-methyl-8-(4-(((tetrahydro-2H-pyran-4-yl)oxy)methyl)phenyl)-3,6-dihydroimidazo[4,5-d]pyrrolo[2,3-b]pyridin-2(1H)-one] | > 1000 nM | ≤ 10 nM | ≤ 10 nM |
| CC(C)n1c(=O)n(C)c2cnc3[nH]c(-c4cnn(CC(C)(C)O)c4)c(C45CCNCC4C5)c3c21 (stereo not drawn) [Example 88, 8-(3-Azabicyclo[4.1.0]heptan-6-yl)-7-(1-(2-hydroxy-2-methylpropyl)-1H-pyrazol-4-yl)-1-isopropyl-3-methyl-3,6-dihydroimidazo[4,5-d]pyrrolo[2,3-b]pyridin-2(1H)-one] | > 1000 nM | 10 to 100 nM | ≤ 10 nM |
| CN(C)C(=O)c1ccc(-c2[nH]c3ncc4c(c3c2-c2ccc3c(cnn3C)c2)n(C2CCCC2)c(=O)n4C)cc1 [Example 89, 4-(1-Cyclopentyl-3-methyl-8-(1-methyl-1H-indazol-5-yl)-2-oxo-1,2,3,6-tetrahydroimidazo [4,5-d]pyrrolo[2,3-b]pyridin-7-yl)-N,N-dimethylbenzamide] | 500 to 1000 nM | ≤ 10 nM | ≤ 10 nM |
| Cn1ncc2cc(-c3c(-c4cnn5cccnc45)[nH]c4ncc5c(c34)n(C3CCOCC3)c(=O)n5C)ccc21 [Example 90, 3-Methyl-8-(1-methyl-1H-indazol-5-yl)-7-(pyrazolo[1,5-a]pyrimidin-3-yl)-1-(tetrahydro-2H-pyran-4-yl)-3,6-dihydroimidazo[4,5-d]pyrrolo[2,3-b]pyridin-2(1H)-one] | > 1000 nM | ≤ 10 nM | ≤ 10 nM |
| COc1nn(C)cc1-c1[nH]c2ncc3c(c2c1-c1ccc2c(cnn2C)c1)n(C1CCOCC1)c(=O)n3C [Example 91, 7-(3-methoxy-1-methyl-1H-pyrazol-4-yl)-3-methyl-8-(1-methyl-1H-indazol-5-yl)-1-(tetrahydro-2H-pyran-4-yl)-3,6-dihydroimidazo[4,5-d]pyrrolo[2,3-b]pyridin-2(1H)-one] | > 1000 nM | ≤ 10 nM | ≤ 10 nM |
| Cn1ncc2cc(-c3c(-c4cnn5c4CCC5)[nH]c4ncc5c(c34)n(C3CCOCC3)c(=O)n5C)ccc21 [Example 92, 7-(5,6-Dihydro-4H-pyrrolo[1,2-b]pyrazol-3-yl)-3-methyl-8-(1-methyl-1H-indazol-5-yl)-1-(tetrahydro-2H-pyran-4-yl)-3,6-dihydroimidazo[4,5-d]pyrrolo[2,3-b]pyridin-2(1H)-one] | > 1000 nM | ≤ 10 nM | ≤ 10 nM |
| Cn1ncc2cc(-c3c(C(O)C4CC4)[nH]c4ncc5c(c34)n(C3CCOCC3)c(=O)n5C)ccc21 (stereo not drawn) [Example 95, 7-(Cyclopropyl(hydroxy)methyl)-3-methyl-8-(1-methyl-1H-indazol-5-yl)-1-(tetrahydro-2H-pyran-4-yl)-3,6-dihydroimidazo[4,5-d]pyrrolo[2,3-b]pyridin-2(1H)-one] | > 1000 nM | 10 to 100 nM | ≤ 10 nM |
